Measurements as given in US9200318B2, “Reduced inhibition of one-step RT-PCR” (Bio Rad Laboratories, Inc., priority 2007, dated 2015).
Read-outs that look alike come from different tables or passages of the source.

Tested on: reverse transcriptase
Procedure: Thaw all components, except the reverse transcriptase, at room temperature. Mix gently, but thoroughly, and then centrifuge at 4° C. to collect contents to the bottom of the tube. Chill on ice before using. Centrifuge again briefly at 4° C. if needed.
To a mixture of Taq DNA polymerase, dNTP (dATP, dCTP, dGTP and dTTP), magnesium chloride, stabilizers and SdC, is added a forward primer, a reverse primer, nuclease-free water and a reverse transcriptase. Assemble the reaction cocktail with all required components except sample template (total RNA) and dispense equal aliquots into each reaction tube. Add target sample (RNA template) to each reaction as the final step 5-10 μl volumes.
The reaction mixture is then incubated in a real-time thermal detection system as follows: • cDNA synthesis: 10 min at 50° C. • reverse transcriptase inactivation: 5 min at 95° C. • PCR cycling and detection (30 to 45 cycles): 10 sec at 95° C., followed by 30 sec at 55° C. to 60° C.

## phosphorothioate oligodeoxycytosine [SdC]
0.1, 0.5, 2 and 10 nM SdC
  inhibition of reverse transcriptase in one-step RT-PCR: reduces the inhibition of reverse transcriptase
  specificity of one-step RT-PCR: significantly improves the specificity of one-step RT-PCR

## Cc1ccc(C(=O)Nc2ccc(S(=O)(=O)O)c3cc(S(=O)(=O)O)cc(S(=O)(=O)O)c23)cc1NC(=O)c1cccc(NC(=O)Nc2cccc(C(=O)Nc3cc(C(=O)Nc4ccc(S(=O)(=O)O)c5cc(S(=O)(=O)O)cc(S(=O)(=O)O)c45)ccc3C)c2)c1 [suramin]
4 ng/μl suramin vs absence
  inhibition of reverse transcriptase in one-step RT-PCR: reduces the inhibition of reverse transcriptase
  specificity of one-step RT-PCR: significantly improves the specificity of one-step RT-PCR
